We go through one compound from patent US11497776B2, “Combination therapy for a stable and long term engraftment” (Yeda Research and Development Co. Ltd., priority 2011, dated 2022).

Assay [1] concerns allogeneic recipients (C3H/Hen) transplanted with Balb/c-Nude BM cells. As for the experimental part:
(§1) Low (5×10^6) and high dose (25×10^6) Balb/c-Nude BM cells (providing a source of BM depleted of T cells) were transplanted into allogeneic recipients (C3H/Hen) on day 0 following in-vivo T cell debulking (TCD) with anti-CD4 (clone GK1.5) and anti-CD8 (clone 53.6.72) antibodies (300 μg each; Bio X Cell, NH, USA) delivered on day −6, and exposure to 2.0 Gy total body irradiation (TBI) on day −1. High dose Cyclophosphamide (CY, 100 mg/kg, Baxter Oncology, Germany) was administered on days +3 and +4 post transplant and donor type chimerism was evaluated 35 and 95 days post transplant using fluorescein anti-host and donor H-2 antibodies (e.g. FlTC labeled anti-H-2D^d antibody specific for donor type cells and PE labeled anti-H-2K^k antibody specific for host type cells).
Recipient mice (C3H/Hen) were treated with a conditioning protocol prior to transplantation of a T cell depleted bone marrow transplant. Specifically, mice were in-vivo treated with T cell debulking (TCD) using anti-CD4 and anti-CD8 antibodies delivered on day −6 and by exposure to 2.0 Gy total body irradiation (TBI) on day −1. Next, low (5×10^6) or high dose (25×10^6) Balb/c-Nude BM cells (providing a source of BM depleted of T cells, as Nude mice have miniscule numbers of mature T cells) were transplanted into allogeneic recipients (C3H/Hen) on day 0. High dose cyclophosphamide (CY, 100 mg/kg) was administered on days +3 and +4 post transplant. Evaluation of bone marrow cell engraftment was evaluated by donor type chimerism at 35 and 95 days post transplant.
as §1, with “High” for “Low (5×10^6) and high”, “different doses of irradiation ranging from 1 to 3.5” for “2.0”, “TBI” for “total body irradiation (TBI)”, “30” for “35 and 95”
High dose Cyclophosphamide (CY) was administered on days +3 and +4 post transplant and donor type chimerism was evaluated at 30 days post transplant.
as §1, with “High dose” for “Low (5×10^6) and high dose”, “−1. Different doses of” for “−1. High dose”, “mg/kg, 125 mg/kg or 150 mg/kg,” for “mg/kg,”, “Germany) were” for “Germany) was”, “evaluated 30” for “evaluated 35 and 95”

For assay [2], the system named is C3H/Hen recipients of T cell depleted BM and high dose CY. On the procedure: Donor (Balb/c) and 3rd party (C57BL/6) skin grafts were transplanted to the mixed chimeric recipients as described above [i.e. to those mice which were previously transplanted with mega dose (25×10^6) T cell depleted BM and were treated with high dose CY] and to the recipient mice that were inoculated with a regular (5×10^6) T cell depleted BM cell dose and were treated with high dose CY.
Tolerance induction was measured by transplantation of donor (Balb/c) and 3rd party (C57BL/6) skin grafts to the mixed chimeric recipients that were transplanted with mega dose (25×10^6) T cell depleted BM and were treated with high dose CY (as described above), in comparison to the recipients that were inoculated with a regular (5×10^6) T cell depleted BM cell dose (as described above).

Setting [3] is: 1.0 Gy TBI, 25×10^6 BM, CY 100 mg/kg days +3 and +4, 30 days post transplant.
Where [4] appears, read: 2 Gy TBI, 25×10^6 BM, CY 100 mg/kg days +3 and +4, 30 days post transplant.
The mark [5] stands for this setting: 2.5, 3 or 3.5 Gy TBI, 25×10^6 BM, CY 100 mg/kg days +3 and +4, 30 days post transplant.

Where two headings read alike, the source gives them in different places.

For the compound `O.O=P1(N(CCCl)CCCl)NCCCO1` (stereo not drawn) [CY, 2-[bis(2-chloroethyl)amino]tetrahydro-2H-1,3,2-oxazaphosphorine 2-oxide monohydrate], the “effect of increasing CY dose on chimerism” value in assay [1] (125 mg/kg or 150 mg/kg versus 100 mg/kg, 25×10^6 BM, 2 Gy TBI, 30 days post transplant) is reported as “did not provide a significant enhancement of chimerism”. Also, the “donor type chimerism range” value in assay [1] (setting [3]) is on record as 14.5-58%; in assay [1] (setting [4]), 56-85%; in assay [1] (setting [5]), 58-83%. The “percentage of chimeric mice” value in assay [1] (setting [3]) came out at 83%. Further, the “percentage of mice exhibiting donor type chimerism” value in assay [1] (setting [4]) is 87%. In addition, in assay [1] (setting [5]), the chimeric recipient mice is given as 6/6. For the same compound, the “mixed chimerism at long term follow-up” value in assay [1] (5×10^6 T cell depleted BM + CY, 180 and 225 days post transplant) was “did not exhibit mixed chimerism”. Also, the “effect of CD8+ cell depletion of the BM preparation on level of chimerism” value in assay [1] (25×10^6 CD8 depleted vs non-depleted Balb/c-Nude BM, CY 100 mg/kg days +3 and +4, 2.0 Gy TBI, 30 days post transplant) is recorded as “did not have any adverse impact”. The “chimerism at long term follow-up” value in assay [1] (25×10^6 T cell depleted BM + high dose CY, 180 and 225 days post transplant) is “stable and durable”. Also, the “mice in which durable mix chimerism was achieved” value in assay [1] (25×10^6 T cell depleted BM, CY 100 mg/kg days +3 and +4, TCD day −6, 2.0 Gy TBI day −1, day 35 and day 95) was 4 out of 7. Besides, the “average donor type chimerism” value in assay [1] (CY 100 mg/kg days +3 and +4, 25×10^6 BM, 2 Gy TBI, 30 days post transplant) came out at 57.5±25.8; in assay [1] (CY 125 mg/kg days +3 and +4, 25×10^6 BM, 2 Gy TBI, 30 days post transplant) it was 66.5±20.6; in assay [1] (CY 150 mg/kg days +3 and +4, 25×10^6 BM, 2 Gy TBI, 30 days post transplant), 67.4±27.4. For the same compound, the “mice expressing donor type chimerism” value in assay [1] (control mice: TCD, 2 Gy TBI and optionally CY, no BM, day 35 and day 95) was “none”; in assay [1] (regular dose 5×10^6 T cell depleted BM, in the presence or absence of cyclophosphamide, TCD, 2 Gy TBI, day 35 and day 95), “none”. Further, in assay [2] (5×10^6 T cell depleted BM cells and CY), the skin graft outcome was “rejected both the donor and 3rd party skin grafts”. For the same compound, the “chimeric mice that accepted the donor graft and rejected the 3rd party skin grafts” value in assay [2] (25×10^6 T cell depleted BM + high dose CY days +3 and +4) is reported as “three out of 4”.
